Among the data in BindingDB's records for PubMed 37257213 (Birla Institute of Technology and Science Pilani) are IC50 values, retold here.

The experiment has as its target Trypanothione reductase (UniProt P39050). The experiment is described as follows: Inhibition of Leishmania donovani Trypanothione reductase.

The structures appear in SMILES notation.

Trypanothione reductase, sequence (P39050 whole entry): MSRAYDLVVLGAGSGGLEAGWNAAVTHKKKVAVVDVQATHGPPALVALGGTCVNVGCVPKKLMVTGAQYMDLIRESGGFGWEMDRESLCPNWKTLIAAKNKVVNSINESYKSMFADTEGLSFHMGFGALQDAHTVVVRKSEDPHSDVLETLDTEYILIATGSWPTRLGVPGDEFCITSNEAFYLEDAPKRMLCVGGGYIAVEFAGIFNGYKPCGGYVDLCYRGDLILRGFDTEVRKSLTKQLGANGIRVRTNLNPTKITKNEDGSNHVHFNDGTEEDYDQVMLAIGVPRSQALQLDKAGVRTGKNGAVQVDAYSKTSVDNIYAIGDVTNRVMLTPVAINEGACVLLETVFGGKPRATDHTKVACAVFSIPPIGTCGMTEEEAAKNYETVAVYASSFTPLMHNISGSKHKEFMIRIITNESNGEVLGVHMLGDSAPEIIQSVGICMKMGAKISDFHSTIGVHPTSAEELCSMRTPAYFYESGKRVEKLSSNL

On to `CN(C)c1ncnc2c1C1(CCCC1)Cc1ccccc1-2` [Name not given], for which inhibition was half-maximal at 91 µM (IC50).
